Results on 2 compounds are retold here after patent US6451293B1, “Combination of erythrulose and a reducing sugar with self-tanning properties” (Pentapharm AG, priority 1997, dated 2002).

Assay [1] deals with skin. The experiment in a line: time for the skin tan/colour to develop. The note with it: in vivo. The protocol:
The hitherto most frequently used active substance is dihydroxyacetone (hereinafter referred to as “DHA”). The fast tanning active substance (4-7 hours) does, however, have some disadvantages. The skin colour achieved is yellowish-brown, which produces an unnatural colour, particularly in pale skin. In addition, the tan is irregular and soon pales again because the top-most layers of the epidermis are quickly shed. […] This may be attributed to the fact that erythrulose dyes the skin more slowly (the colour takes about 20-24 hours to develop) and less intensively, but instead also penetrates lower layers of the Stratum corneum where it is also able to react with the free amino groups. This not only results in more even tanning, but also in a retarded effect, with the result that the tan lasts longer. Moreover the skin becomes less dried out than, for example, with DHA alone. The synergistic effect, that will subsequently also be shown with reference to examples, of the active substance combination erythrulose/other reducing sugars, such as for example DHA, was not predictable.

The test system of assay [2] is skin. Particulars: known active substance, background statement; cited from earlier work.

Take `O=C(CO)C(O)CO` (racemic) [erythrulose, 1,3,4-trihydroxy-butan-2-one]: the “time the colour takes to develop” value in the assay with skin [1] is 20 to 24 h.

For the compound `O=C(CO)CO` [DHA, 1,3-dihydroxy-propan-2-one], in the assay on skin [2], the time of tanning was 4 to 7 h.
